Source: the NIST ThermoML archive (doi:10.1021/je101086r)

Assay: xn = mol fraction of the nth substance listed
Conditions: Pycnometric method

CC1COC(=O)O1 (configuration not stated) [4-methyl-1,3-dioxolan-2-one] + O=C=O
Conditions	mass density [kg/m3]
313 K, 2000 kPa, Gas, x2 = 0.9953	47.6
313 K, 2000 kPa, Liquid, x2 = 0.2593	1170
313 K, 3000 kPa, Gas, x2 = 0.9895	73
313 K, 3000 kPa, Liquid, x2 = 0.3384	1170
313 K, 4000 kPa, Gas, x2 = 0.9864	97.2
313 K, 4000 kPa, Liquid, x2 = 0.4022	1160
313 K, 5000 kPa, Gas, x2 = 0.9894	136.8
313 K, 5000 kPa, Liquid, x2 = 0.4548	1164.8
313 K, 6000 kPa, Gas, x2 = 0.9963	170.5
313 K, 6000 kPa, Liquid, x2 = 0.4919	1156
313 K, 7000 kPa, Gas, x2 = 0.99	224.7
313 K, 7000 kPa, Liquid, x2 = 0.542	1141.4
313 K, 8000 kPa, Gas, x2 = 0.99	244
313 K, 8000 kPa, Liquid, x2 = 0.5706	1129.7
313 K, 9000 kPa, Gas, x2 = 0.9907	276.7
313 K, 9000 kPa, Liquid, x2 = 0.6169	1109.2
313 K, 10000 kPa, Gas, x2 = 0.9841	339.9
313 K, 10000 kPa, Liquid, x2 = 0.6579	1089.3
313 K, 11000 kPa, Gas, x2 = 0.9866	366.2
313 K, 11000 kPa, Liquid, x2 = 0.6915	1073
313 K, 12000 kPa, Gas, x2 = 0.9694	390.8
313 K, 12000 kPa, Liquid, x2 = 0.7279	1046.6
333 K, 3000 kPa, Gas, x2 = 0.9942	52
333 K, 3000 kPa, Liquid, x2 = 0.2425	1090.7
333 K, 4000 kPa, Gas, x2 = 0.9968	77.8
333 K, 4000 kPa, Liquid, x2 = 0.2787	1096.7
333 K, 5000 kPa, Gas, x2 = 0.9922	100.2
333 K, 5000 kPa, Liquid, x2 = 0.3272	1106.7
333 K, 6000 kPa, Gas, x2 = 0.9862	116.8
333 K, 6000 kPa, Liquid, x2 = 0.3723	1105.7
333 K, 7000 kPa, Gas, x2 = 0.9885	147.9
333 K, 7000 kPa, Liquid, x2 = 0.4079	1109.2
333 K, 8000 kPa, Gas, x2 = 0.9898	174.5
333 K, 8000 kPa, Liquid, x2 = 0.4512	1110.2
333 K, 9000 kPa, Gas, x2 = 0.984	199.6
333 K, 9000 kPa, Liquid, x2 = 0.4846	1102.2
333 K, 10000 kPa, Gas, x2 = 0.9855	230.2
333 K, 10000 kPa, Liquid, x2 = 0.5244	1091.2
333 K, 11000 kPa, Gas, x2 = 0.9812	271.3
333 K, 11000 kPa, Liquid, x2 = 0.5725	1077.1
333 K, 12000 kPa, Gas, x2 = 0.9888	326.5
333 K, 12000 kPa, Liquid, x2 = 0.6065	1061.1
333 K, 13000 kPa, Gas, x2 = 0.9883	411.2
333 K, 13000 kPa, Liquid, x2 = 0.6246	1052.5
353 K, 1000 kPa, Gas, x2 = 0.952	18.6
353 K, 1000 kPa, Liquid, x2 = 0.081	1011
353 K, 2000 kPa, Gas, x2 = 0.9663	32.2
353 K, 2000 kPa, Liquid, x2 = 0.115	1024.5
353 K, 3000 kPa, Gas, x2 = 0.9679	50.9
353 K, 3000 kPa, Liquid, x2 = 0.1518	1030
353 K, 4000 kPa, Gas, x2 = 0.9679	68.5
353 K, 4000 kPa, Liquid, x2 = 0.196	1040.8
353 K, 5000 kPa, Gas, x2 = 0.9591	84.4
353 K, 5000 kPa, Liquid, x2 = 0.2317	1044.3
353 K, 6000 kPa, Gas, x2 = 0.9866	100
353 K, 6000 kPa, Liquid, x2 = 0.2852	1054.8
353 K, 7000 kPa, Gas, x2 = 0.9836	115
353 K, 7000 kPa, Liquid, x2 = 0.3205	1062.4
353 K, 8000 kPa, Gas, x2 = 0.9922	164.5
353 K, 8000 kPa, Liquid, x2 = 0.351	1050
353 K, 9000 kPa, Gas, x2 = 0.9891	206
353 K, 9000 kPa, Liquid, x2 = 0.3881	1048.4
353 K, 10000 kPa, Gas, x2 = 0.9709	224.7
353 K, 10000 kPa, Liquid, x2 = 0.4112	1035.5
353 K, 11000 kPa, Gas, x2 = 0.9779	250
353 K, 11000 kPa, Liquid, x2 = 0.4485	997.5
353 K, 12000 kPa, Gas, x2 = 0.9719	300
353 K, 12000 kPa, Liquid, x2 = 0.492	970.4
353 K, 13000 kPa, Gas, x2 = 0.9842	320
353 K, 13000 kPa, Liquid, x2 = 0.5225	951.1
373 K, 3000 kPa, Gas, x2 = 0.9747	40
373 K, 3000 kPa, Liquid, x2 = 0.1384	1000
373 K, 4000 kPa, Gas, x2 = 0.9779	60.5
373 K, 4000 kPa, Liquid, x2 = 0.1638	1004.9
373 K, 5000 kPa, Gas, x2 = 0.98	82.7
373 K, 5000 kPa, Liquid, x2 = 0.2031	1005.4
373 K, 6000 kPa, Gas, x2 = 0.9802	95.9
373 K, 6000 kPa, Liquid, x2 = 0.2367	1011.5
373 K, 7000 kPa, Gas, x2 = 0.9784	125.9
373 K, 7000 kPa, Liquid, x2 = 0.2692	1000
373 K, 8000 kPa, Gas, x2 = 0.9795	149.8
373 K, 8000 kPa, Liquid, x2 = 0.2948	988.9
373 K, 9000 kPa, Gas, x2 = 0.9782	158
373 K, 9000 kPa, Liquid, x2 = 0.3268	980.9
373 K, 10000 kPa, Gas, x2 = 0.9847	181
373 K, 10000 kPa, Liquid, x2 = 0.3403	960.8
373 K, 11000 kPa, Gas, x2 = 0.9806	226.8
373 K, 11000 kPa, Liquid, x2 = 0.3805	940.7
373 K, 12000 kPa, Gas, x2 = 0.9848	241.7
373 K, 12000 kPa, Liquid, x2 = 0.39	935.1
373 K, 13000 kPa, Gas, x2 = 0.9844	264.9
373 K, 13000 kPa, Liquid, x2 = 0.4136	931.2

CCCC(=O)OCC [ethyl butanoate] + O=C=O
Conditions	mass density [kg/m3]
313 K, 2000 kPa, Gas, x2 = 0.9978	39.4
313 K, 2000 kPa, Liquid, x2 = 0.3795	919.1
313 K, 3000 kPa, Gas, x2 = 0.9926	61.3
313 K, 3000 kPa, Liquid, x2 = 0.4919	901
313 K, 4000 kPa, Gas, x2 = 0.9951	96.8
313 K, 4000 kPa, Liquid, x2 = 0.6053	867.6
313 K, 5000 kPa, Gas, x2 = 0.9938	141.2
313 K, 5000 kPa, Liquid, x2 = 0.7204	841.3
313 K, 6000 kPa, Gas, x2 = 0.9941	222.9
313 K, 6000 kPa, Liquid, x2 = 0.8124	813.8
313 K, 7000 kPa, Gas, x2 = 0.9888	300
313 K, 7000 kPa, Liquid, x2 = 0.8876	789.8
313 K, 8000 kPa, Gas, x2 = 0.9616	450
313 K, 8000 kPa, Liquid, x2 = 0.9495	744.8
333 K, 2000 kPa, Gas, x2 = 0.967	38.2
333 K, 2000 kPa, Liquid, x2 = 0.3088	801.5
333 K, 3000 kPa, Gas, x2 = 0.9751	57
333 K, 3000 kPa, Liquid, x2 = 0.3978	806.9
333 K, 4000 kPa, Gas, x2 = 0.9726	82.4
333 K, 4000 kPa, Liquid, x2 = 0.491	804.4
333 K, 5000 kPa, Gas, x2 = 0.9713	120.5
333 K, 5000 kPa, Liquid, x2 = 0.5707	786.8
333 K, 6000 kPa, Gas, x2 = 0.9709	164.2
333 K, 6000 kPa, Liquid, x2 = 0.6514	781.3
333 K, 7000 kPa, Gas, x2 = 0.9706	258.1
333 K, 7000 kPa, Liquid, x2 = 0.7285	752.2
333 K, 8000 kPa, Gas, x2 = 0.9716	298.4
333 K, 8000 kPa, Liquid, x2 = 0.8105	726.6
333 K, 9000 kPa, Gas, x2 = 0.9541	375.1
333 K, 9000 kPa, Liquid, x2 = 0.8711	692
333 K, 10000 kPa, Gas, x2 = 0.92	426.5
333 K, 10000 kPa, Liquid, x2 = 0.9039	670
353 K, 2000 kPa, Gas, x2 = 0.9121	34.5
353 K, 2000 kPa, Liquid, x2 = 0.2195	762.9
353 K, 3000 kPa, Gas, x2 = 0.9126	46.2
353 K, 3000 kPa, Liquid, x2 = 0.2919	764.7
353 K, 4000 kPa, Gas, x2 = 0.9151	68.5
353 K, 4000 kPa, Liquid, x2 = 0.356	765.8
353 K, 5000 kPa, Gas, x2 = 0.9166	106.5
353 K, 5000 kPa, Liquid, x2 = 0.4259	758.8
353 K, 6000 kPa, Gas, x2 = 0.9166	150.4
353 K, 6000 kPa, Liquid, x2 = 0.4863	753
353 K, 7000 kPa, Gas, x2 = 0.9189	215.9
353 K, 7000 kPa, Liquid, x2 = 0.5364	734.8
353 K, 8000 kPa, Gas, x2 = 0.9142	258
353 K, 8000 kPa, Liquid, x2 = 0.5983	719.6
353 K, 9000 kPa, Gas, x2 = 0.9127	308.3
353 K, 9000 kPa, Liquid, x2 = 0.6685	685.1
353 K, 10000 kPa, Gas, x2 = 0.91	331.7
353 K, 10000 kPa, Liquid, x2 = 0.7399	655.8
353 K, 11000 kPa, Gas, x2 = 0.89	375
353 K, 11000 kPa, Liquid, x2 = 0.8222	655.2
373 K, 2000 kPa, Gas, x2 = 0.867	30.6
373 K, 2000 kPa, Liquid, x2 = 0.18	627.3
373 K, 3000 kPa, Gas, x2 = 0.8751	45.1
373 K, 3000 kPa, Liquid, x2 = 0.2406	665.4
373 K, 4000 kPa, Gas, x2 = 0.8726	64.7
373 K, 4000 kPa, Liquid, x2 = 0.3086	675.5
373 K, 5000 kPa, Gas, x2 = 0.8713	96.5
373 K, 5000 kPa, Liquid, x2 = 0.3859	686.5
373 K, 6000 kPa, Gas, x2 = 0.8709	126.4
373 K, 6000 kPa, Liquid, x2 = 0.4129	675
373 K, 7000 kPa, Gas, x2 = 0.8706	171
373 K, 7000 kPa, Liquid, x2 = 0.4862	659.4
373 K, 8000 kPa, Gas, x2 = 0.8716	201.1
373 K, 8000 kPa, Liquid, x2 = 0.5222	647.4
373 K, 9000 kPa, Gas, x2 = 0.8766	233.2
373 K, 9000 kPa, Liquid, x2 = 0.5764	639.9
373 K, 10000 kPa, Gas, x2 = 0.856	259.8
373 K, 10000 kPa, Liquid, x2 = 0.6256	628.8
